Like-named read-outs stand apart in the source and are kept apart here. Each block holds one compound with its values, some of them ahead of it.
Key:
[1] = molecular target: T1, medium chain dehydrogenase (Sus scrofa, UniProt P41367); assay: Competition studies with the substrate octanoyl-CoA; assay type: biochemical, pig; design: medium-chain acyl-CoA dehydrogenase (MC-CoA DH) as purified from pig kidney; from tissue; host or cells: pig kidney; settings: 30 μM octanoyl-CoA, 3 nM dehydrogenase
T1 sequence (P41367 26-421): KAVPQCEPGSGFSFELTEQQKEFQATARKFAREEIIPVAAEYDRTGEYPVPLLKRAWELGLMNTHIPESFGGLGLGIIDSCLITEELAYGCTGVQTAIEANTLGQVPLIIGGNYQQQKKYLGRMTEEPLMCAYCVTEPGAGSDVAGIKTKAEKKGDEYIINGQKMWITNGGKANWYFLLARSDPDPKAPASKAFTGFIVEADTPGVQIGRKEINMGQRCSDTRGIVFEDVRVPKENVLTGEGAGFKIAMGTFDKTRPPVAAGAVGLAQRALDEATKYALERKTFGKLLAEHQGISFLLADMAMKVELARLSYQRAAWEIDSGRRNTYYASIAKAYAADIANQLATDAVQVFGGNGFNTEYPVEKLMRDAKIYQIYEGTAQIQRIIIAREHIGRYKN
Description: (§1) General Information: Medium chain acyl-CoA dehydrogenase was purified from pig kidney as described previously (33). Porcine liver esterase (EC 3.1.1.1), CoASH (lithium salt), D-pantethine, and 5,5′-dithio-bis(2-nitrobenzoic acid) were obtained from Sigma. E,E-2,4-octadienal and E,E-2,4-dodecadienal were from Alfa and K & K Laboratories respectively. […] Thorpe et al. in Biochemistry 1979, 18, 331–337. Unless otherwise stated, buffers were 50 mM potassium phosphate, pH 7.6, containing 0.3 mM EDTA, and experiments were conducted at 25° C. Assays of the medium chain dehydrogenase were as described previously, see C. Thorpe et al. in Anal. Biochem. 1990, 186, 280–284. Static and rapid-reaction spectrophotometry were performed as reported in C. Thorpe et al, in Biochemistry 1998, 37, 10469–10477.
In competition studies with the substrate octanoyl-CoA, at a concentration of 30 μM, both the CoA and pantetheine analogs of the compounds of the invention are shown to be relatively strong reversible inhibitors of medium chain dehydrogenase. The assay studies included a dehydrogenase concentration of 3 nM. Compared to a control without inhibitor, 4.4 nM of the 3,4-decadienoyl-CoA analog decreased the rate to 50% within 1 minute.

[2] = molecular target: T2, medium-chain acyl-CoA dehydrogenase (MC-CoA DH) (Sus scrofa, UniProt P41367); assay: Kinetic stability of enzyme adducts (return of oxidized flavin absorbance at 446 nm); assay type: biochemical, pig; settings: for rate constant of enzyme adduct decomposition: 1.6 equivalents racemic 3,4-dienoyl-CoA (0.8 equivalent R-isomer), 9.5 μM enzyme, pH 7.6; for enzyme adduct stability relative to the corresponding full length CoA-thioester: times more stable than the CoA adduct
T2 construct: medium-chain acyl-CoA dehydrogenase (MC-CoA DH) as purified from pig kidney; from tissue; host or cells: pig kidney
T2 sequence (P41367 26-421): T1 sequence (P41367 26-421)
Text: The reduced flavin adduct decomposes to the 2,4-conjugated diene with the return of the oxidized flavin absorbance spectrum. This isomerization provides a measure of the kinetic stability of each of the enzyme adducts formed. The dehydrogenase enzyme used in the stability testing of the inventive compounds was medium-chain acyl-CoA dehydrogenase (MC-CoA DH) as purified from pig kidney.
as §1
A solution of acyl-CoA dehydrogenase (9.5 μM in 50 mM phosphate buffer, pH 7.6, 25° C.) is mixed with 1.6 equivalents of racemic 3,4-dienoyl-CoA derivatives (0.8 equivalent of R-isomer) containing 5, 6, 7, 8, 10, 12 and 15 carbon acyl chains. The return of oxidized flavin absorbance was monitored at 446 nm. A sub-stoichiometric amount (1.6 equivalents racemate: corresponding to 0.8 equivalent of the R-isomer) is used to avoid the lag phases encountered in the presence of excess inhibitor. The return of oxidized flavin absorbance is strongly chain length dependent.
Enzyme adduct stabilities with the medium-chain acyl-CoA dehydrogenase of R-(−)-3,4-decadienoyl-CoA, R-(−)-3,4-decadienoyl-pantetheine, and R-(−)-3,4-decadienoyl N-acetylcysteamine were compared. The dehydrogenase was incubated with 0.8 equivalents of the CoA, pantetheine and N-acetylcysteamine thioesters of R-(−)-3,4-decadienoic acid until maximal bleaching of the flavin chromophore was observed. The reappearance of the oxidized flavin chromophore was then followed at 25° C.

[3] = molecular target: T1, medium chain dehydrogenase; settings: absence of displacing ligand; cited from earlier work
[4] = molecular target: T3, medium chain acyl-CoA dehydrogenase (Sus scrofa, UniProt P41367); assay: Spectral titration / inhibition of the dehydrogenase by allenic thioesters; assay type: biochemical, pig
T3 construct: medium-chain acyl-CoA dehydrogenase (MC-CoA DH) as purified from pig kidney; from tissue; host or cells: pig kidney
T3 sequence (P41367 26-421): T1 sequence (P41367 26-421)
Text: See, Example 1. The (S)-enantiomer is rapidly isomerized to the trans-2,4-conjugated diene. […] These structural studies show a surprising, but relatively large, variation in the interaction between structurally similar inhibitors.
as §1
The spectral changes were completed rapidly before measurement could be made. Intermediate spectra are omitted for clarity. […] In FIG. 1C, the enzyme (5.06 μM in 50 mM phosphate buffer, pH 7.6, 25° C.; curve 1) was titrated with 2.53, 5.06, 36.4, 66.8, 109.3 μM of S-(+)-decadienoyl-CoA (curves 2–6, respectively). Intermediate spectra are omitted for clarity. The absorbance values at 446 nm are shown in the inset.

[5] = molecular target: T3, medium chain acyl-CoA dehydrogenase; assay: Enzyme adduct formation: bleaching of the flavin chromophore at 446 nm (stopped-flow / conventional spectrophotometry); assay type: biochemical, pig; settings: for limiting rate of flavin bleaching / rate constant of bleaching of the flavin chromophore at 446 nm: 2° C.; for rate constant of bleaching of the flavin chromophore at 446 nm: at 50 μM; for long wavelength band: compared with the CoA compound, pantetheine at 50 μM
Description: as §1
(§2) Bleaching of the flavin chromophore, followed at 446 nm, is relatively rapid for the pantetheine compound, but slow enough for a conventional spectrophotometer with the N-acetylcysteamine compound. At 50 μM, the rate constants are 30.9 s^−1, 7.5 s^−1, and 0.035 s^−1 for the CoA, pantetheine, N-acetylcysteamine compounds, respectively at 2° C. Limiting rates of 33 s^−1 and 55 s^−1 are obtained for CoA and pantetheine thioesters, respectively.
Dehydrogenase and R-(−)3,4-decadienoyl-CoA are mixed in the stopped-flow spectrophotometer at 2° C. to give final concentrations of 11 μM and 60 μM. The absorbance changes at 446 and 800 nm are shown in the inset of FIG. 2. As is observed with a number of diverse thioester substrates, such as butyryl-, octanoyl- and dihydrocinnamoyl-CoA, bleaching of the flavin at 446 nm is biphasic.
The absorbance changes were recorded in a 2 cm path-length cell after mixing dehydrogenase and R-(−)-thioester in the stopped flow spectrophotometer to give final concentrations of 5.5 and 30 μM respectively in 50 mM phosphate buffer, pH 7.6 at 2° C. […] Absorbance traces at a range of wavelengths were used to construct the spectrum of the intermediate species maximal at about 20 msec.

[6] = Solubility observation during rate measurements; assay type: physicochemical
Description: as §2

Compound: 3,4-decadienoyl pantetheine [3,4-decadienoyl-pantetheine]
IC50 ([1]; read-out: concentration required to decrease the rate to 50% of control): 500 nM

Compound: CCCCCCCC=C=CCC(=O)SCCNC(=O)CCNC(=O)[C@H](O)C(C)(C)COP(=O)(O)OP(=O)(O)OC[C@H]1O[C@@H](n2cnc3c(N)ncnc32)[C@H](O)[C@@H]1OP(=O)(O)O (racemic) [3,4-dodecadienoyl-CoA]
rate constant of enzyme adduct decomposition ([2]; 25° C.): 0.18 h⁻¹

Compound: CCC=C=CCC(=O)SCCNC(=O)CCNC(=O)[C@H](O)C(C)(C)COP(=O)(O)OP(=O)(O)OC[C@H]1O[C@@H](n2cnc3c(N)ncnc32)[C@H](O)[C@@H]1OP(=O)(O)O (racemic) [3,4-heptadienoyl-CoA]
rate constant of enzyme adduct decomposition ([2]; 25° C.): 1.9 h⁻¹

Compound: CC=C=CCC(=O)SCCNC(=O)CCNC(=O)[C@H](O)C(C)(C)COP(=O)(O)OP(=O)(O)OC[C@H]1O[C@@H](n2cnc3c(N)ncnc32)[C@H](O)[C@@H]1OP(=O)(O)O (racemic) [3,4-hexadienoyl-CoA]
rate constant of enzyme adduct decomposition ([2]; 25° C.): 8.7 h⁻¹

Compound: CCCC=C=CCC(=O)SCCNC(=O)CCNC(=O)[C@H](O)C(C)(C)COP(=O)(O)OP(=O)(O)OC[C@H]1O[C@@H](n2cnc3c(N)ncnc32)[C@H](O)[C@@H]1OP(=O)(O)O (racemic) [3,4-octadienoyl-CoA]
rate constant of enzyme adduct decomposition ([2]; 25° C.): 0.08 h⁻¹

Compound: CCCCCCCCCCC=C=CCC(=O)SCCNC(=O)CCNC(=O)[C@H](O)C(C)(C)COP(=O)(O)OP(=O)(O)OC[C@H]1O[C@@H](n2cnc3c(N)ncnc32)[C@H](O)[C@@H]1OP(=O)(O)O (racemic) [3,4-pentadecanedienoyl-CoA]
rate constant of enzyme adduct decomposition ([2]; 25° C.): 0.27 h⁻¹

Compound: CCCCCC=C=CCC(=O)SCCNC(=O)CCNC(=O)[C@H](O)C(C)(C)CO [R-(−)-3,4-decadienoyl-pantetheine]
limiting rate of flavin bleaching [5]: 55 s⁻¹
rate constant of bleaching of the flavin chromophore at 446 nm [5]: 7.5 s⁻¹
long wavelength band [5]: one quarter as intense
enzyme adduct stability relative to the corresponding full length CoA-thioester [2]: ~9 times
enzyme adduct stability relative to the corresponding full length CoA-thioester ([2]; listed as (R)-3,4-decadienoyl-pantetheine): 10 times

Second part, led by results:

rate constant of enzyme adduct decomposition ([2]; 25° C.): 1.6 h⁻¹
Compound: C=C=CCC(=O)SCCNC(=O)CCNC(=O)[C@H](O)C(C)(C)COP(=O)(O)OP(=O)(O)OC[C@H]1O[C@@H](n2cnc3c(N)ncnc32)[C@H](O)[C@@H]1OP(=O)(O)O [3,4-pentadienoyl-CoA, reference compound]
half-life of reduced flavin adduct [3]: about 75 min

inhibition of the dehydrogenase [4]: potent inhibitor
Compound: CCCC=C=CCC(=O)SCCNC(=O)CCNC(=O)[C@H](O)C(C)(C)COP(=O)(O)OP(=O)(O)OC[C@H]1O[C@@H](n2cnc3c(N)ncnc32)[C@H](O)[C@@H]1OP(=O)(O)O [(R)-3,4-octadienoyl-CoA]

inhibition of the dehydrogenase [4]: very little, if any, inhibition
Compound: CCCC=C=CCC(=O)SCCNC(=O)CCNC(=O)[C@H](O)C(C)(C)COP(=O)(O)OP(=O)(O)OC[C@H]1O[C@@H](n2cnc3c(N)ncnc32)[C@H](O)[C@@H]1OP(=O)(O)O [(S)-3,4-octadienoyl-CoA]

stoichiometry of bleaching at 446 nm ([4]; 9.6 μM enzyme, pH 7.6, 25° C., FIG. 1B inset): 0.95 equivalents
limiting rate of flavin bleaching [5]: 33 s⁻¹
rate constant of bleaching of the flavin chromophore at 446 nm [5]: 30.9 s⁻¹
Compound: CCCCCC=C=CCC(=O)SCCNC(=O)CCNC(=O)[C@H](O)C(C)(C)COP(=O)(O)OP(=O)(O)OC[C@H]1O[C@@H](n2cnc3c(N)ncnc32)[C@H](O)[C@@H]1OP(=O)(O)O [R-(−)-3,4-decadienoyl-CoA]

solubility [6]: low solubility
rate constant of bleaching of the flavin chromophore at 446 nm [5]: 0.035 s⁻¹
long wavelength band [5]: no long-wavelength band was observed
enzyme adduct stability relative to the corresponding full length CoA-thioester [2]: greater than 100 times
Compound: CCCCCC=C=CCC(=O)SCCNC(C)=O [R-(−)-3,4-decadienoyl-N-acetylcysteamine]
regain of flavin absorbance (adduct stability in words) ([2]; 0.8 equivalents, 25° C.): no appreciable regain of the flavin absorbance after two days

inhibition of the dehydrogenase [4]: relatively weak inhibitor
flavin adduct formation ([4]; spectral titration): does not form a detectable flavin adduct
Compound: CCCCCC=C=CCC(=O)SCCNC(=O)CCNC(=O)[C@H](O)C(C)(C)COP(=O)(O)OP(=O)(O)OC[C@H]1O[C@@H](n2cnc3c(N)ncnc32)[C@H](O)[C@@H]1OP(=O)(O)O [S-(+)-3,4-decadienoyl-CoA]

IC50 ([1]; within 1 minute, read-out: concentration that decreased the rate to 50% of control): 4.4 nM
rate constant of enzyme adduct decomposition ([2]; 25° C.): 0.12 h⁻¹
Compound: decadienoyl-CoA

Reference: patent publication US7045547B2, “Acyl-CoA dehydrogenase allenic inhibitors” (University of Delaware, priority 2002, dated 2006)
